Experimental data taken from US20240092784A1, “CONDENSED HETEROCYCLIC COMPOUND” (NISSAN CHEMICAL CORPORATION, priority 2020, published 2024).
Counter-ions that a name gives are not always drawn.

molecular target: human SPR (Homo sapiens (Human), UniProt P35270); experiment: Evaluation Example 2: Measurement of human SPR inhibitory activity (seven concentrations, sepiapterin absorbance at 420 nm); assay type: biochemical; conditions: Evaluation Example 2, seven concentrations 0.14 nM to 100 nM, 240 minutes at room temperature, read-out: IC50
Sequence (P35270 whole entry): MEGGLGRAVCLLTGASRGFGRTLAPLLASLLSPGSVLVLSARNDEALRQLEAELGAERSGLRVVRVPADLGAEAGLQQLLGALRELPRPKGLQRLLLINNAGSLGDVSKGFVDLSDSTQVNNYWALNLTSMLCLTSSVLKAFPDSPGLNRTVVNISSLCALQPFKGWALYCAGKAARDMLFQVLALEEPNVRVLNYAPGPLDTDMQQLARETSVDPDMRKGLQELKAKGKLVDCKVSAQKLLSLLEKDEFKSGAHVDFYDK
Procedure: Human SPR was prepared as described below. The full-length human SPR (1-261) cDNA was purchased from Eurofins Genomics as an artificially synthesized plasmid containing a DNA sequence optimized for the E. coli expression system so that the sequence of the expressed protein after transcription and translation matches the sequence described in UniprotKB (P35270).
Linearized insert and vector were prepared by PCR using primers designed for amplification of human SPR cDNA and primers designed to contain the thrombin recognition sequence of pET28a (Novagen) and a polyhistidine tag. Cloning was performed using In-Fusion (registered trademark) HD Cloning Kit (TaKaRa) to thereby construct a human SPR expression plasmid. The resultant human SPR expression plasmid was transformed into BL21 (DE3) competent cells (INVITROGEN).
The cells were inoculated into LB medium (1% triptone, 0.5% yeast extract, 1% sodium chloride) containing […] of kanamycin, and then precultured at 37° C. overnight. The precultured cells were inoculated into TB medium (1.2% triptone, 2.4% yeast extract, 9.4% dipotassium hydrogen phosphate, 2.2% potassium dihydrogen phosphate, 0.8% glycerin) containing […] of kanamycin, and the cultured at 37° C., to thereby induce SPR expression with 0.5 mM IPTG for four hours. After the induction, the cells were collected by centrifugation at 6,000 G for 30 minutes and washed with PBS, and the washing was discarded. The washed cells were suspended in buffer solution A (20 mM MES, pH 6.5, 100 mM sodium chloride, 1 mM DTT, 5 mM imidazole). Subsequently, the cell suspension was subjected to ultrasonic treatment to thereby homogenize the cells. The cell homogenate was clarified by centrifugation at 30,000 G for 60 minutes and then filtered with a […]. The filtrate was allowed to pass through HisTrapFF 5 mL column (GE Healthcare). The resin was washed with buffer A, and then gradient elution was performed with buffer B (20 mM MES, pH 6.5, 100 mM sodium chloride, 1 mM DTT, 500 mM imidazole). Thrombin was added to a fraction containing the SPR protein, and the mixture was dialyzed in buffer A overnight, to thereby cleave the tag. After removal of the thrombin by with Benzamidine Sepharose 4 FF (GE Healthcare), the resultant product was allowed to pass through the HisTrapFF 5 mL column, to thereby remove the tag, followed by concentration with Amicon Ultra 10,000 NMWL (Merck Millipore). The concentrate was purified by gel filtration using HiLoad 16/60 Superdex 75 pg (GE Healthcare) equilibrated with buffer C (20 mM MES, pH 6.5, 100 mM sodium chloride, 1 mM DTT). The fraction containing SPR protein was concentrated and then cryopreserved at −80° C.
Human SPR inhibitory activity was measured by using a 384-well low adsorption clear plate (Greiner) with buffer D containing 100 mM Tris-HCl (pH 7.5) (Thermo Fisher Scientific) and 0.01% bovine serum albumin (Sigma). A compound was diluted with DMSO to achieve seven different final concentrations; i.e., 0.14 nM, 0.41 nM, 1.23 nM, 3.7 nM, 11.1 nM, 33 nM, and 100 nM. A 1.5 μL aliquot of the compound solution prepared with DMSO was diluted with 250 μL of buffer D, and the thus-diluted solution was dispensed into the 384-well plate at 20 μL/well. Thereafter, human SPR was diluted with buffer D to 150 ng/mL and then dispensed into the 384-well plate at 20 μL/well. Subsequently, 40 μL of ultrapure water containing 120 μM sepiapterin (produced by the method described in L-Sepiapterin, Heterocycles, 2008, 76, 1329-1335 and WO 2013/168693) and 160 μM NADPH (Nacalai) was added to each well, and then reaction was initiated. The reaction mixture was incubated at room temperature for 240 minutes. Thereafter, in order to determine the amount of sepiapterin, the absorbance at 420 nm was measured by applying the 384-well plate to EnSpire multimode plate reader (Perkin Elmer). The percent inhibition (%) of human SPR by the test compound was calculated by the following formula.

`Cc1nn(C)c(C)c1CNC(=O)c1cnn2c(O)c(C(=O)NC3CC3)c(=O)n(CC(C)C)c12` [Synthesis Example 223, N6-Cyclopropyl-7-hydroxy-4-isobutyl-5-oxo-N3-((1,3,5-trimethyl-1H-pyrazol-4-yl)methyl)-4,5-dihydropyrazolo[1,5-a]pyrimidine-3,6-dicarboxamide] and `Cc1cc(CNC(=O)c2cnn3c(O)c(C(=O)NC4CC4)c(=O)n(CC(C)C)c23)n(C)n1` [Synthesis Example 229, N6-Cyclopropyl-N3-((1,3-dimethyl-1H-pyrazol-5-yl)methyl)-7-hydroxy-4-isobutyl-5-oxo-4,5-dihydropyrazolo[1,5-a]pyrimidine-3,6-dicarboxamide] are within 1.5-fold of each other in IC50: 1.12 nM for the first, 0.85 nM for the second.

`Cc1cnc(CNC(=O)c2cnn3c(O)c(C(=O)NC4CC4)c(=O)n(CC(C)C)c23)cn1` [Synthesis Example 224, N6-Cyclopropyl-7-hydroxy-4-isobutyl-N3-((5-methylpyrazin-2-yl)methyl)-5-oxo-4,5-dihydropyrazolo[1,5-a]pyrimidine-3,6-dicarboxamide] and `Cc1ccc(CNC(=O)c2cnn3c(O)c(C(=O)NC4CC4)c(=O)n(CC(C)C)c23)nc1` [Synthesis Example 228, N6-Cyclopropyl-7-hydroxy-4-isobutyl-N3-((5-methylpyridin-2-yl)methyl)-5-oxo-4,5-dihydropyrazolo[1,5-a]pyrimidine-3,6-dicarboxamide] are within 1.5-fold of each other in IC50: 0.78 nM for the first, 1.02 nM for the second.

Compared with `CC(C)Cn1c(=O)c(C(=O)NC2CC2)c(O)n2ncc(C(=O)Nc3ccccn3)c12` [Synthesis Example 225, N6-Cyclopropyl-7-hydroxy-4-isobutyl-5-oxo-N3-(pyridin-2-yl)-4,5-dihydropyrazolo[1,5-a]pyrimidine-3,6-dicarboxamide], `CC(C)Cn1c(=O)c(C(=O)NC2CC2)c(O)n2ncc(C(=O)NCc3ncccc3F)c12` [Synthesis Example 235, N6-Cyclopropyl-N3-((3-fluoropyridin-2-yl)methyl)-7-hydroxy-4-isobutyl-5-oxo-4,5-dihydropyrazolo[1,5-a]pyrimidine-3,6-dicarboxamide] is 2-fold lower in IC50: 1.84 nM for the first, 0.9 nM for the second. The second is the more potent here.

`CC(C)Cn1c(=O)c(C(=O)NC2CC2)c(O)n2ncc(C(=O)NCc3ccc(C(F)(F)F)nc3)c12` [Synthesis Example 226, N6-Cyclopropyl-7-hydroxy-4-isobutyl-5-oxo-N3-((6-(trifluoromethyl)pyridin-3-yl)methyl)-4,5-dihydropyrazolo[1,5-a]pyrimidine-3,6-dicarboxamide] and `CC(C)Cn1c(=O)c(C(=O)NC2CC2)c(O)n2ncc(C(=O)NCc3ccc(C#N)cc3)c12` [Synthesis Example 232, N3-(4-Cyanobenzyl)-N6-cyclopropyl-7-hydroxy-4-isobutyl-5-oxo-4,5-dihydropyrazolo[1,5-a]pyrimidine-3,6-dicarboxamide] are within 1.5-fold of each other in IC50: 1.07 nM for the first, 1.25 nM for the second.

`CC(C)Cn1c(=O)c(C(=O)NC2CC2)c(O)n2ncc(C(=O)N3CCOCC3)c12` [Synthesis Example 227, N-Cyclopropyl-7-hydroxy-4-isobutyl-3-(morpholine-4-carbonyl)-5-oxo-4,5-dihydropyrazolo[1,5-a]pyrimidine-6-carboxamide] and `CC(C)Cn1c(=O)c(C(=O)NC2CC2)c(O)n2ncc(/C=C/C3CCOCC3)c12` [Synthesis Example 237, (E)-N-Cyclopropyl-7-hydroxy-4-isobutyl-5-oxo-3-(2-(tetrahydro-2H-pyran-4-yl)vinyl)-4,5-dihydropyrazolo[1,5-a]pyrimidine-6-carboxamide] are within 1.5-fold of each other in IC50: 0.65 nM for the first, 0.91 nM for the second.

`CC(C)Cn1c(=O)c(C(=O)NC2CC2)c(O)n2ncc(C(=O)N(C)Cc3cccnc3)c12` [Synthesis Example 230, N6-Cyclopropyl-7-hydroxy-4-isobutyl-N3-methyl-5-oxo-N3-(pyridin-3-ylmethyl) 4,5-dihydropyrazolo[1,5-a]pyrimidine-3,6-dicarboxamide] and `CC(C)Cn1c(=O)c(C(=O)NC2CC2)c(O)n2ncc(C(=O)NCc3ncccn3)c12` [Synthesis Example 231, N6-Cyclopropyl-7-hydroxy-4-isobutyl-5-oxo-N3-(pyrimidin-2-ylmethyl)-4,5-dihydropyrazolo[1,5-a]pyrimidine-3,6-dicarboxamide] are within 1.5-fold of each other in IC50: 0.93 nM for the first, 0.65 nM for the second.

`CC(C)Cn1c(=O)c(C(=O)NC2CC2)c(O)n2ncc(C(=O)NCc3ccccc3F)c12` [Synthesis Example 233, N6-Cyclopropyl-N3-(2-fluorobenzyl)-7-hydroxy-4-isobutyl-5-oxo-4,5-dihydropyrazolo[1,5-a]pyrimidine-3,6-dicarboxamide] and `CC(C)Cn1c(=O)c(C(=O)NC2CC2)c(O)n2ncc(C(=O)NCc3ccc(F)cc3F)c12` [Synthesis Example 234, N6-Cyclopropyl-N3-(2,4-difluorobenzyl)-7-hydroxy-4-isobutyl-5-oxo-4,5-dihydropyrazolo[1,5-a]pyrimidine-3,6-dicarboxamide] are within 1.5-fold of each other in IC50: 1.03 nM for the first, 1.41 nM for the second.

Going from `CC(C)Cn1c(=O)c(C(=O)NC2CC2)c(O)n2ncc(/C=C/c3cnccn3)c12` [Synthesis Example 236, (E)-N-Cyclopropyl-7-hydroxy-4-isobutyl-5-oxo-3-(2-(pyrazin-2-yl)vinyl)-4,5-dihydropyrazolo[1,5-a]pyrimidine-6-carboxamide] to `CC(C)Cn1c(=O)c(C(=O)NC2CC2)c(O)n2ncc(/C=C/c3cscn3)c12` [Synthesis Example 240, (E)-N-Cyclopropyl-7-hydroxy-4-isobutyl-5-oxo-3-(2-(thiazol-4-yl)vinyl)-4,5-dihydropyrazolo[1,5-a]pyrimidine-6-carboxamide], the IC50 rises from 0.97 nM to 1.84 nM (1.9-fold). The first is the more potent here.

Compared with `Cc1noc(C)c1/C=C/c1cnn2c(O)c(C(=O)NC3CC3)c(=O)n(CC(C)C)c12` [Synthesis Example 238, (E)-N-Cyclopropyl-3-(2-(3,5-dimethylisoxazol-4-yl)vinyl)-7-hydroxy-4-isobutyl-5-oxo-4,5-dihydropyrazolo[1,5-a]pyrimidine-6-carboxamide], `CC(C)Cn1c(=O)c(C(=O)NC2CC2)c(O)n2ncc(/C=C/C(C)(C)C)c12` [Synthesis Example 243, (E)-N-Cyclopropyl-3-(3,3-dimethylbut-1-en-1-yl)-7-hydroxy-4-isobutyl-5-oxo-4,5-dihydropyrazolo[1,5-a]pyrimidine-6-carboxamide] is 1.8-fold higher in IC50: 0.89 nM for the first, 1.58 nM for the second.

Going from `CC(C)Cn1c(=O)c(C(=O)NC2CC2)c(O)n2ncc(C3=CCCNC3)c12` [Synthesis Example 239, N-Cyclopropyl-7-hydroxy-4-isobutyl-5-oxo-3-(1,2,5,6-tetrahydropyridin-3-yl)-4,5-dihydropyrazolo[1,5-a]pyrimidine-6-carboxamide hydrochloride] to `CC(C)Cn1c(=O)c(C(=O)NC2CC2)c(O)n2ncc(/C=C/C3CCNCC3)c12` [Synthesis Example 241, (E)-N-Cyclopropyl-7-hydroxy-4-isobutyl-5-oxo-3-(2-(piperidin-4-yl)vinyl)-4,5-dihydropyrazolo[1,5-a]pyrimidine-6-carboxamide hydrochloride], the IC50 rises from 0.72 nM to 1.98 nM (2.8-fold). The first is the more potent here.

`CC(C)Cn1c(=O)c(C(=O)NC2CC2)c(O)n2ncc(/C=C/C3(C)CCOCC3)c12` [Synthesis Example 242, (E)-N-Cyclopropyl-7-hydroxy-4-isobutyl-3-(2-(4-methyltetrahydro-2H-pyran-4-yl)vinyl)-5-oxo-4,5-dihydropyrazolo[1,5-a]pyrimidine-6-carboxamide] was tested, and the IC50 was 1.39 nM.
